Data as given in patent US20220280589A1, “METHOD FOR TREATING ALZHEIMER'S DISEASE BY REGULATING AMINO ACID LEVEL” (SHANGHAI GREEN VALLEY PHARMACEUTICAL CO., LTD., priority 2019, published 2022).
“Also recorded” adds a separate entry of the source.

Tests used:
SLC7A5 = biological target: T1, SLC7A5 (Mus musculus, UniProt Q9Z127); experiment: Uptake of ^13C-labeled phenylalanine by CD4^+ T cells; format: cell-based; conditions: ^13C-phenylalanine 5 mmol/L, 0.5 h
T1 construct: endogenous in cells; host or cells: Primary CD4+ T cells (naive/Th0 and IL-12-induced Th1) from splenocytes of C57BL/6 mice
T1 sequence (Q9Z127 whole entry): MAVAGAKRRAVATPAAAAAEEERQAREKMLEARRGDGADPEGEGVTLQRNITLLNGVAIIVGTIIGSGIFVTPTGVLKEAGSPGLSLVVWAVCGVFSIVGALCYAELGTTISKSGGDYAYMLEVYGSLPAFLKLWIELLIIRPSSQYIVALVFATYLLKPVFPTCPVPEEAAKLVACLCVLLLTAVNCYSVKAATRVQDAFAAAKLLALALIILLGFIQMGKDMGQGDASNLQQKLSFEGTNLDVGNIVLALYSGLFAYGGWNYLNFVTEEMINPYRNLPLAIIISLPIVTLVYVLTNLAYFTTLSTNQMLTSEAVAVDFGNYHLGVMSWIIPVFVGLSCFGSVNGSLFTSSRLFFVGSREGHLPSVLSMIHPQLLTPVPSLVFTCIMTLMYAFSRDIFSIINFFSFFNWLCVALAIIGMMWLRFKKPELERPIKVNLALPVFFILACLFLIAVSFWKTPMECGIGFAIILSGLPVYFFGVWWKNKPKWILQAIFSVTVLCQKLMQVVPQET
T1 sequence (P10852 whole entry partner): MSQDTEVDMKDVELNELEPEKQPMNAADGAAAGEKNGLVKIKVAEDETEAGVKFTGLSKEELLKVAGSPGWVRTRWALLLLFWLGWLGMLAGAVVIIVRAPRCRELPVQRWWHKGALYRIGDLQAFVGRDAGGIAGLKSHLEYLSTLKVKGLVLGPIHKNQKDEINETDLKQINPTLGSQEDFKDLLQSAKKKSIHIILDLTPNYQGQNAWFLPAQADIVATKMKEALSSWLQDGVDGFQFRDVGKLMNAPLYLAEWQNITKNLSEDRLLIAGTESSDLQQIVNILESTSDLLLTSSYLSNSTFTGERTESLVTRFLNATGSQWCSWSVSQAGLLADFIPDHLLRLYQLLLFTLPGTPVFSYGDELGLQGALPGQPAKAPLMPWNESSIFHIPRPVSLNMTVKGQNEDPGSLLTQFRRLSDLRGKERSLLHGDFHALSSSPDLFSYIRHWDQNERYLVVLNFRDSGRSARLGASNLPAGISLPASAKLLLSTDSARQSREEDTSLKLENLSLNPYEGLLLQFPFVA
Method: (k) The uptake of phenylalanine by the naïve CD4 T cells. The naïve CD4 T cells were cultured with/without ^13C-labeled phenylalanine for 0.5 h. Mass Spectrometry of phenylalanine-related compounds were tested. ^13C-Phenylalanine is administered at a concentration of 5 mmol/L, and is taken up by an L-type amino acid transporter.
Naive CD4^+ T cells were separated from the splenocytes of 8-month-old C57BL/6 female mice using the Naive CD4^+ T cell Isolation Kit (Stem Cell, Cat No. 19765) and were induced to Th1 differentiation by 20 ng/mL IL-12. After 3 days, a total of 5 ×10^5 cells/well Th1 cells and Th0 cells in 0.5 mL of RPMI-1640 medium were plated into 48-well plates. ^13C-labeled phenylalanine and 5 mM amino transporter inhibitor BCH were added into indicated wells. After 0.5 h, cells were collected and washed twice with ice-cold D-PBS. 50 μL deionized water was added and cells were lysed through freezing and thawing twice at −80° C. The cell lysate was centrifuged at 12000×g for 10 min and ^13 C-labeled phenylalanine in the supernatant was analyzed by Mass spectrometry.

[1] = test system: 5XFAD transgenic (Tg) mice; experiment: Flow cytometry of brain homogenate immune cells (Th1, M1 microglia); format: in vivo, mouse; conditions: 6-month-old 5XFAD mice, 50 mg/kg intraperitoneal injection every day for one month, versus vehicle
Method: Tg mice and co-housed WT mice (corresponding WT mice generated by mating Tg mice and C57 mice) were housed in the same cage after birth. WT mice (C57) were housed in separate cages to avoid cross-transfer of microbiota. All mice were kept in a 23° C. room with a 12-hour (h) light-dark cycle. Mice were randomly assigned to different groups before treatment. For time course analysis of Tg mice, male and female Tg mice were sacrificed at 2, 3, 5, 7 and 9 months of age. The mouse brain was collected and stained for immune cell analysis and cytokine analysis. […] The brains and feces of the mice were then used for different analyses.
Mice were anesthetized, blood samples were collected into EDTA-containing tubes, and red blood cells were removed using 1×red blood lysis buffer. Before tissue collection, the brains were perfused with ice-cold PBS to avoid sampling the circulating blood immune cells, and the brains were removed, chopped into pieces and dissected according to the introduction of the Adult Brain Dissociation Kit (Miltenyi, Cat No. 130-107-677) using the gentleMACS dissociator (Miltenyi Biotec). The brain homogenate was filtered through a 70-μm cell strainer and centrifuged at 300×g for 5 min at 4° C. […] All samples were counted and adjusted to a density of 2-3×10^6/100 μL, labeled with a Live/Dead kit for 30 min, and then centrifuged at 500×g for 3 min at 4° C. […]

naive CD4^+ T cells = experiment: In vitro differentiation and proliferation induced by phenylalanine and isoleucine; format: cell-based, mouse; conditions: 3 days; for Th1 cell proliferation: amino acid (1 mM) added to CellTrace-stained naive CD4^+ T cell culture; for Th0 cell differentiation into Th1 cells: amino acid (1 mM) added to naive CD4^+ T cell culture
Method: (e) The effects of OM1 on the differentiation of naive CD4^+ T cells (Th0 cells) to Th1 cells induced by phenylalanine and isoleucine. Naive CD4^+ T cells were cultured for 3 days with/without OM1 in the presence of phenylalanine (1 mM) or isoleucine (1 mM). The frequency of Th1 (CD4^+IFN-γ^+) cells was tested by flow cytometry. The data are presented as mean±standard error of the mean (mean±sem); n=3 replicates per group. Left, *P<0.05, **P<0.01 by one-way ANOVA (F (2, 6)=15.64). Right, *P<0.05, **P<0.01 by one-way ANOVA (F (2, 6)=10.35).
(f) The effects of OM1 on the proliferation of Th1 cells induced by phenylalanine and isoleucine. The naive CD4^+ T cells were stained with CellTrace and cultured for 3 days with/without OM1 in the presence of phenylalanine (1 mM) and isoleucine (1 mM). The density of CellTrace fluorescence in Th1 (CD4^+IFN-γ^+) cells was tested by flow cytometry (see Methods). The data are presented as mean±standard error of the mean (mean±sem), n=3. *P<0.05, ***P<0.001 by one-way ANOVA (F (4, 9)=28.34).
Naive CD4^+ T cells were separated from the splenocytes of 8-month-old C57BL/6 female mice using the Naive CD4^+ T cell Isolation Kit (Stem Cell, #19765), and the cells were stained with CellTrace (Thermo Fisher, #C34557). A total of 1×10^5 cells/well in 0.2 mL of RPMI-1640 medium were plated in 96-well plates, and the culture medium was supplemented with cytokines or blocking antibodies. Th0: 10 ng/mL mIL-2; Th1:10 ng/mL mIL-2, 5000 ng/mL 11B11. Phenylalanine (final concentration, 2 mmol/L), isoleucine (final concentration, 2 mmol/L) and OM1 (final concentration, 100 μg/mL) were added into the indicated wells, respectively. After incubation at 37° C. in 5% CO2 for 5 days, cells were acquired on a BD Fortessa cytometer, and data were analyzed using FlowJo software.

C57 mice = experiment: Intraperitoneal injection of phenylalanine and isoleucine, blood Th1 cells by flow cytometry; format: in vivo, mouse; conditions: WT (C57) mice, intraperitoneal injection 50 mg/kg for 4 days
Method: (g) Blood Th1 cell changes after 4-day intraperitoneal (i.p.) injection of phenylalanine and isoleucine (n=6). ***P<0.001 by one-way ANOVA (F (2, 21)=101.8).
Tg mice and co-housed WT mice (corresponding WT mice generated by mating Tg mice and C57 mice) were housed in the same cage after birth. WT mice (C57) were housed in separate cages to avoid cross-transfer of microbiota. All mice were kept in a 23° C. room with a 12-hour (h) light-dark cycle. Mice were randomly assigned to different groups before treatment. For time course analysis of Tg mice, male and female Tg mice were sacrificed at 2, 3, 5, 7 and 9 months of age. The mouse brain was collected and stained for immune cell analysis and cytokine analysis. Before the mice were sacrificed, feces were collected for gut microbiota analysis. […] All mouse movements that occur in PhenoTyper (HomeCage) are recorded by a computerized tracking system, which calculates the time and number of entrances required to reach 80% of the performance standard (Noldus, Ethovision). […]
Mice were anesthetized, blood samples were collected into EDTA-containing tubes, and red blood cells were removed using 1×red blood lysis buffer. […] All samples were counted and adjusted to a density of 2-3×10^6/100 μL, labeled with a Live/Dead kit for 30 min, and then centrifuged at 500×g for 3 min at 4° C. […]

Row | SMILES | uptake of ^13C-labeled phenylalanine by CD4^+ T cells (SLC7A5) | proportion of pro-inflammatory Th1 cells in the brain [1] | Th1 cell proliferation (naive CD4^+ T cells) | Th0 cell differentiation into Th1 cells (naive CD4^+ T cells) | Th1 cell count in the blood (C57 mice)
1 | Nc1cc(COc2c(Cl)cc(C[C@H](N)C(=O)O)cc2Cl)c2oc(-c3ccccc3)nc2c1 [JPH203] | blocked | effectively inhibits the proportion of Th1 cells in the brain; also recorded: significantly downregulated the proportion of pro-inflammatory Th1 cells in the mouse brain |  |  | 
2 | CC[C@H](C)[C@H](N)C(=O)O [isoleucine] |  |  | increased | increased | increased significantly
3 | N[C@@H](Cc1ccccc1)C(=O)O [phenylalanine] |  |  | increased | increased | increased significantly
